Assay: logP determination by HPLC on reversed-phase column (C 18), EEC Directive 79/831 Annex V.A8
Assay type: physicochemical
Conditions: reversed-phase C 18, 43° C., acid range (0.1% aqueous phosphoric acid, acetonitrile), marked a)
Description: a) The logP values given in table 1 were determined in accordance with EEC Directive 79/831 Annex V.A8 by HPLC (High Performance Liquid Chromatography) on a reversed-phase column (C 18). Temperature: 43° C. (a) Mobile phases for the determination in the acid range: 0.1% aqueous phosphoric acid, acetonitrile; linear gradient from 10% acetonitrile to 90% acetonitrile—corresponding measurement results are marked a) in table 1. Calibration was carried out using unbranched alkan-2-ones (having 3 to 16 carbon atoms) with known logP values (determination of the logP values by the retention times using linear interpolation between two successive alkanones).

logP | SMILES
logP = 3.04^a) | O=C1C(O)=C(c2ccccc2Cl)C(=O)N1c1cccc(C(F)(F)F)c1 [Example 26]
logP = 3.51^a) | O=C1C(O)=C(c2ccc(Cl)cc2)C(=O)N1c1ccc(Cl)cc1 [Example 63]
logP = 4.75^a) | Cc1ccc(-c2ccc(Cl)cc2)cc1C1=C(O)C(=O)N(c2c(Cl)cc(Cl)cc2Cl)C1=O [Example 127]
logP = 4.61^a) | Cc1ccc(-c2ccc(Cl)cc2)cc1C1=C(O)C(=O)N(CC(C)(C)C)C1=O [Example 138]
logP = 3.59^a) | O=C1C(O)=C(c2cccc(OC(F)(F)F)c2)C(=O)N1c1ccc(Cl)cc1 [Example 65]
logP = 2.80^a) | N#Cc1ccc(C2=C(O)C(=O)N(c3cc(Cl)cc(Cl)c3)C2=O)cc1 [Example 77]
logP = 4.08^a) | Cc1ccc(-c2ccc(Cl)cc2)cc1C1=C(O)C(=O)N(CC2CC2)C1=O [Example 125]
logP = 2.31^a) | N#Cc1ccc(C2=C(O)C(=O)N(Cc3ccccc3F)C2=O)cc1 [Example 98]
logp = 4.42^a) | Cc1ccc(C2=C(O)C(=O)N(Cc3cc(Cl)cc(Cl)c3)C2=O)cc1 [Example 119]
logP = 3.75^a) | O=C1C(O)=C(c2cccc(C(F)(F)F)c2)C(=O)N1c1ccc(OC(F)(F)F)cc1 [Example 53]
logP = 4.51^a) | Cc1ccc(-c2ccc(Cl)cc2)cc1C1=C(O)C(=O)N(c2ccc(Cl)cc2Cl)C1=O [Example 126]
logP = 4.65^a) | Cc1ccc(-c2ccc(Cl)cc2)cc1C1=C(O)C(=O)N(Cc2cccc(C(F)(F)F)c2)C1=O [Example 128]

The remaining lines, values behind:

SMILES | logP
O=C1C(O)=C(c2cccc(OC(F)(F)F)c2)C(=O)N1Cc1cc(Cl)cc(Cl)c1 [Example 117] | logP = 4.45^a)
Cc1cc(C)c(C2=C(O)C(=O)N(Cc3ccccc3F)C2=O)c(C)c1 [Example 93] | logP = 3.51^a)
O=C1C(O)=C(c2c(F)cccc2F)C(=O)N1Cc1ccc(OC(F)(F)F)cc1 [Example 82] | logP = 3.16^a)
O=C1C(O)=C(c2ccccc2F)C(=O)N1Cc1ccccc1F [Example 95] | logP = 2.82^a)
O=C1C(O)=C(c2cccc(C(F)(F)F)c2)C(=O)N1Cc1ccccc1F [Example 96] | logP = 3.48^a)
O=C1C(O)=C(c2cccc(C(F)(F)F)c2)C(=O)N1Cc1ccc(OC(F)(F)F)cc1 [Example 85] | logP = 4.15^a)
CCOc1cccc(F)c1CN1C(=O)C(O)=C(c2c(C)cc(C)cc2C)C1=O [Example 181] | logP = 3.68^a)
CC(C)(C)C(=O)OC1=C(c2ccccc2Cl)C(=O)N(C2CCOCC2)C1=O [Example 156] | logP = 3.87 ^a)
O=C1C(O)=C(c2ccc(OC(F)(F)F)cc2)C(=O)N1Cc1ccccc1F [Example 97] | logP = 3.83^a)
CCOC(=O)C1(N2C(=O)C(O)=C(c3ccccc3Cl)C2=O)CCC(OC)CC1 (single isomer, unassigned) [Example 151] | logP = 2.53^a)
CCOC(=O)C1(N2C(=O)C(O)=C(c3ccccc3Cl)C2=O)CCCC(C)C1 (stereo not shown) [Example 168] | logP = 3.78^a)
O=C1C(O)=C(c2cccc(OC(F)(F)F)c2)C(=O)N1CCC(F)(F)F [Example 48] | logP = 3.30^a)
O=C1C(O)=C(c2ccc(OC(F)(F)F)cc2)C(=O)N1CC(F)(F)F [Example 39] | logP = 3.04^a)
N#Cc1ccc(C2=C(O)C(=O)N(CC(F)(F)F)C2=O)cc1 [Example 40] | logP = 1.94^a)
CC1(C)CC(N2C(=O)C(O)=C(c3ccccc3Cl)C2=O)CC(C)(C)C1 [Example 160] | logP = 4.41^a)
N#CC1(N2C(=O)C(O)=C(c3ccccc3Cl)C2=O)CCCCC1 [Example 157] | logP = 2.72^a)
CCOC(=O)CCN1C(=O)C(O)=C(c2ccc(C)cc2)C1=O [Example 180] | logP = 2.74^a)
CCOC(=O)C1(N2C(=O)C(OC(=O)C(C)(C)C)=C(c3ccccc3Cl)C2=O)CCCC(C)C1 (stereo not shown) [Example 170] | logP = 5.85^a)
O=C1C(O)=C(c2ccccc2Cl)C(=O)N1C12CC3CC(CC(C3)C1)C2 [Example 161] | logP = 4.20^a)
